This passage reports inhibition and IC50 results from ChEMBL document CHEMBL4130349, “Discovery and structure-activity relationship studies of 2-benzylidene-2,3-dihydro-1H-inden-1-one and benzofuran-3(2H)-one derivatives as a novel class of potential therapeutics for inflammatory bowel disease” (Eur J Med Chem, 2017).

Activity calls are given as the source filed them. The calls are words filed in the database; no cut-off is given here.

For assay [1], the system named is HT-29. Briefly: Inhibition of TNF-alpha-induced adhesion of BCECF-labeled human U937 cells to human HT-29 cells at 10 uM preincubated for 1 hr followed by TNF-alpha challenge measured after 3 hrs by fluorescence microscopic method relative to control. Format: functional.
For assay [2], the system named is HT-29. Briefly: Inhibition of TNF-alpha-induced adhesion of BCECF-labeled human U937 cells to human HT-29 cells preincubated for 1 hr followed by TNF-alpha challenge measured after 3 hrs by fluorescence microscopic method. Format: functional, cell-based.
The subject of assay [3] is HT-29. In words: Inhibition of TNF-alpha-induced ICAM-1 expression in human HT-29 cells at 10 uM preincubated for 1 hr followed by TNF-alpha challenge measured after 3 hrs by Western blot analysis. Format: functional, cell-based.
Assay [4] concerns HT-29. In words: Inhibition of TNF-alpha-induced ROS production in human HT-29 cells at 10 uM preincubated for 1 hr followed by TNF-alpha challenge measured after 30 mins by DCF-DA dye-based fluorescence microscopy. Format: functional, cell-based.
In assay [5] the test system is HT-29. Briefly: Inhibition of TNF-alpha-induced MCP-1 expression in human HT-29 cells at 10 uM preincubated for 1 hr followed by TNF-alpha challenge measured after 3 hrs by Western blot analysis. Format: functional, cell-based.
Assay [6] concerns HT-29. Briefly: Inhibition of TNF-alpha-induced NFkappa-B transcriptional activity in human HT-29 cells at 10 uM preincubated for 1 hr followed by TNF-alpha challenge measured after 3 hrs by dual luciferase reporter gene assay. Type of assay: functional, cell-based. Background: A reporter such as luciferase makes a cellular process visible.

A word on the inhibition: it is the change of the read-out against control, counted positive when it falls. In the case of `O=C1/C(=C/c2ccc(Cl)o2)Cc2ccccc21`, the inhibition at 10 µM in the assay on HT-29 [1] is -8.9%.

Consider `O=C1/C(=C/c2ccc(O)cc2)Cc2c(O)cccc21`, for which the inhibition at 10 µM in the assay with HT-29 [1] was -1.7%.

As for `O=C1/C(=C/c2cccc(Cl)c2)Cc2ccccc21`, the inhibition at 10 µM in the assay on HT-29 [1] is -2.1%. On the same count and under the same terms, under `O=C1/C(=C/c2cccc(OC(F)(F)F)c2)Cc2ccccc21` stands 9.9%. For the molecule `O=C1/C(=C/c2ccc(OC(F)(F)F)cc2)Cc2ccccc21`, the inhibition at 10 µM in the assay on HT-29 [1] was 34.5%. One may read the IC50 as the midpoint of a concentration-inhibition curve. Regarding `O=C1/C(=C/c2ccc(O)cc2)Cc2ccccc21`, the inhibition at 10 µM in the assay with HT-29 [1] was 72.6%. For the same molecule, the IC50 in the assay with HT-29 [2] worked out at 1530 nM. For the same molecule, the inhibition result with HT-29 [3], with HT-29 [4], in the assay with HT-29 [5] and in the assay with HT-29 [6] was “Active” throughout.

For `O=C1/C(=C/c2ccc(Cl)cc2)Cc2cc(O)ccc21`, in the assay with HT-29 [1], the inhibition at 10 µM is 0.2%. On the same count and under the same terms, in the case of `O=C1/C(=C/c2ccc(F)cc2)Cc2ccccc21` it was 7.1%; in that of `O=C1/C(=C/c2ccccc2F)Cc2ccccc21`, 27.8%; in that of `O=C1/C(=C/c2ccccc2O)Cc2cccc(O)c21`, 67.9%.

In the case of `O=C1/C(=C/c2ccc(Cl)cc2)Cc2cccc(O)c21`, the inhibition at 10 µM with HT-29 [1] amounted to 78.4%. In the assay with HT-29 [2], this molecule yielded a half-inhibitory concentration (IC50) of 1640 nM. Further, the inhibition entry in the assay with HT-29 [3], in the assay with HT-29 [4], in the assay with HT-29 [5] and in the assay with HT-29 [6] was “Active” throughout.

With `O=C1/C(=C/c2ccc(Cl)cc2)Cc2ccccc21`, in the assay on HT-29 [1], the inhibition at 10 µM was -6.1%. On the same count and under the same terms, in the case of `O=C1/C(=C/c2cccc(Cl)c2)Oc2cc(O)ccc21` it was 45.9%. Still for that read-out and setting: in the case of `O=C1/C(=C/c2ccccc2O)Cc2cc(O)ccc21` it was 32.1%; in that of `O=C1/C(=C/c2ccccc2OC(F)(F)F)Cc2ccccc21`, 3.4%. Same read-out and setting: in the case of `O=C1/C(=C/c2ccccn2)Cc2ccccc21` it was 21.9%; in that of `O=C1/C(=C/c2ccc(C(F)(F)F)cc2)Cc2ccccc21`, 22.5%.

Take `O=C1/C(=C/c2ccccc2O)Cc2ccccc21`: the inhibition at 10 µM in the assay on HT-29 [1] was determined as 63.1%.

Turning to `O=C1/C(=C/c2ccccc2O)Oc2cc(O)ccc21`, in the assay with HT-29 [1], the inhibition at 10 µM is 53.5%. On the same count and under the same terms, under `O=C1/C(=C/c2ccccc2O)Cc2c(O)cccc21` stands 30.3%; under `COc1ccc(/C=C2\Cc3cccc(O)c3C2=O)cc1O`, 35%; under `O=C1/C(=C/c2ccccc2C(F)(F)F)Cc2ccccc21`, 42.8%. In the case of `O=C1/C(=C/c2cccc(O)c2)Oc2cc(O)ccc21`, in the assay with HT-29 [1], the inhibition at 10 µM is 75.7%. This molecule also had a concentration for half-maximal inhibition (IC50) in the assay with HT-29 [2] of 1680 nM. The inhibition entry in the assay with HT-29 [3], in the assay with HT-29 [4], in the assay with HT-29 [5] and in the assay on HT-29 [6] was “Active” each time. For the molecule `O=C1/C(=C/c2cccc(O)c2)Cc2cc(O)ccc21`, the inhibition at 10 µM with HT-29 [1] came to 50.2%.

On to `O=C1/C(=C/c2ccccc2O)Oc2ccccc21`, for which the inhibition at 10 µM in the assay with HT-29 [1] is 85.6%. In the assay on HT-29 [2], this molecule yielded an IC50 of 950 nM. The inhibition result in the assay on HT-29 [3], in the assay with HT-29 [4], in the assay on HT-29 [5] and in the assay with HT-29 [6] was “Active” throughout. With `O=C1/C(=C/c2cccc(O)c2)Cc2cccc(O)c21`, the inhibition at 10 µM in the assay on HT-29 [1] came out at 60.5%. Consider `O=C1/C(=C/c2cccc(Cl)c2)Oc2ccccc21`, for which the inhibition at 10 µM with HT-29 [1] was 40%. Regarding `COc1ccc(/C=C2\Cc3ccc(O)cc3C2=O)cc1O`, the inhibition at 10 µM in the assay on HT-29 [1] was 12%. Regarding `O=C1/C(=C/c2cccc(F)c2)Cc2ccccc21`, the inhibition at 10 µM in the assay on HT-29 [1] was 22.1%.

As for `O=C1/C(=C/c2ccc(-c3ccccc3)cc2)Cc2ccccc21`, the inhibition at 10 µM with HT-29 [1] amounted to 62.6%. For `O=C1/C(=C/c2ccc(Cl)cc2)Cc2c(O)cccc21`, in the assay with HT-29 [1], the inhibition at 10 µM turned out to be 10.6%. Same read-out and setting: in the case of `O=C1/C(=C/c2ccc(O)cc2)Oc2ccccc21` it was 63.6%; in that of `O=C1/C(=C/c2cccc(O)c2)Cc2c(O)cccc21`, 6.1%. The same measure, in the same setting: in the case of `O=C1/C(=C/c2ccc(Cl)cc2)Cc2ccc(O)cc21` it was 67.9%; in that of `O=C1/C(=C/c2cccc([N+](=O)[O-])c2)Cc2ccccc21`, 46.5%; in that of `O=C1/C(=C/c2ccc(O)cc2)Cc2cccc(O)c21`, 69.8%. Same read-out and setting: in the case of `O=C1/C(=C/c2cccc(O)c2)Cc2ccccc21` it was 43.7%. As to `O=C1/C(=C/c2ccc(Cl)s2)Oc2ccccc21`, in the assay with HT-29 [1], the inhibition at 10 µM was 75.1%. Besides, the midpoint of inhibition in the assay on HT-29 [2], the IC50, lay at 3720 nM. Moreover, the inhibition result in the assay on HT-29 [3], in the assay on HT-29 [4], with HT-29 [5] and in the assay with HT-29 [6] was “Active” throughout.

On to `O=C1/C(=C/c2cccnc2)Cc2ccccc21`, for which the inhibition at 10 µM in the assay with HT-29 [1] came to 28.7%.

As to `O=C1/C(=C/c2cccc(O)c2)Oc2ccccc21`, the inhibition at 10 µM in the assay on HT-29 [1] worked out at 75.4%. Further, in the assay on HT-29 [2], the concentration for half-maximal inhibition (IC50) came to 3170 nM. In addition, the inhibition entry in the assay with HT-29 [3], with HT-29 [4], in the assay on HT-29 [5] and with HT-29 [6] was “Active” throughout. Take `O=C1/C(=C/c2ccc(Cl)cc2)Oc2ccccc21`: the inhibition at 10 µM in the assay with HT-29 [1] was determined as 68.7%.

On to `O=C1/C(=C/c2ccccc2)Cc2ccccc21`, for which the inhibition at 10 µM in the assay with HT-29 [1] came out at 55.3%. The IC50 in the assay on HT-29 [2] worked out at 5750 nM. The inhibition entry in the assay on HT-29 [5] and with HT-29 [6] was “Active” each time. As to `O=C1/C(=C/c2ccc(O)cc2)Cc2cc(O)ccc21`, in the assay with HT-29 [1], the inhibition at 10 µM is 45.4%. As to `O=C1/C(=C/c2cccc(-c3ccccc3)c2)Cc2ccccc21`, in the assay with HT-29 [1], the inhibition at 10 µM stood at 33.4%. `O=C1/C(=C/c2ccccc2Cl)Oc2ccccc21`: the inhibition at 10 µM with HT-29 [1] is 50.7%. The same measure, in the same setting: in the case of `O=C1/C(=C/c2ccccc2Cl)Cc2ccccc21` it was -4.3%. `O=C1/C(=C/c2cccc(O)c2)Cc2ccc(O)cc21`: the inhibition at 10 µM in the assay with HT-29 [1] worked out at 62.7%. Still for that read-out and setting: in the case of `O=C1/C(=C/c2ccc(Cl)s2)Cc2ccccc21` it was 5.7%; in that of `COc1ccc(/C=C2\Cc3cc(O)ccc3C2=O)cc1O`, -2.5%; in that of `O=C1/C(=C/c2cccc(C(F)(F)F)c2)Cc2ccccc21`, 54.9%. The same measure, in the same setting: under `O=C1/C(=C/c2ccc(Cl)cc2)Oc2cc(O)ccc21` [6-HYDROXY-4'-CHLORO AURONE] stands 49%.

With `O=C1/C(=C/c2ccccc2O)Cc2ccc(O)cc21`, the inhibition at 10 µM in the assay with HT-29 [1] was 71.3%. This molecule displayed a 50% inhibitory concentration (IC50) in the assay on HT-29 [2] of 2290 nM. Moreover, the inhibition entry with HT-29 [3], with HT-29 [4], in the assay with HT-29 [5] and in the assay with HT-29 [6] was “Active” in each case. For the molecule `O=C1/C(=C/c2ccc(Cl)o2)Oc2ccccc21`, the inhibition at 10 µM in the assay with HT-29 [1] turned out to be 62.2%.

Consider `O=C1/C(=C/c2ccccc2Cl)Oc2cc(O)ccc21`, for which, in the assay with HT-29 [1], the inhibition at 10 µM is 45.5%. The same measure, in the same setting: in the case of `COc1ccc(/C=C2\Cc3c(O)cccc3C2=O)cc1O` it was 0.1%.
